Data taken from paper PMC10139140, “Synthesis of Novel 2-(Cyclopentylamino)thiazol-4(5H)-one Derivatives with Potential Anticancer, Antioxidant, and 11β-HSD Inhibitory Activities” (International Journal of Molecular Sciences, 2023).

Experiments:
[1] = system: human colon carcinoma (Caco-2); assay: MTS metabolic activity assay, Caco-2 cells; type: cell-based; settings: Homo sapiens, 72 h, read-out: Cell metabolic activity (MTS), % of untreated control
Procedure: (§1) The BJ (CRL-2522), Caco-2 (HTB-37), PANC-1 (CRL-1469), U-118 MG (HTB-15), SK-MEL-30 (ACC 151), and MDA-MB-231 (HTB-26) cell lines were purchased from ATCC (Manassas, VA, USA) or DSMZ (Braunschweig, GERMANY). Cells were cultured in accordance with manufacturers' recommendations in a DMEM, MEM, or RPMI-1640 (Sigma, Saint Louis, MO, USA; Gibco, Waltham, MA, USA), supplemented with 10% FBS, except for Caco-2 (20%) (Thermo Fisher Scientific, Waltham, MA, USA) and 1% antibiotic mix solution (penicillin, streptomycin; Thermo Fisher Scientific, Waltham, MA, USA) in a humidified atmosphere with 5% CO2 at 37 °C. All cell lines were cultured in T75 cell culture flasks or cell culture dishes to reach 80–90% confluency and seeded at a standard density of 5 × 10^3 cells/0.32 cm^2, except for BJ cells at 2 × 10^3 cells/0.32 cm^2.
(§2) The MTS ((MTS: 3-(4,5-dimethylthiazol-2-yl)-5-(3-carboxymethoxyphenyl)-2-(4-sulfophenyl)-2H-tetrazolium)) assay was performed following previously reported method. Briefly, cells were seeded at a standard density into 96-well flat-bottom plates and incubated for 24 h, followed by the treatment. The various concentrations of compounds were prepared and treated for the next 72 h. MTS solution was added for 3h and incubated at standard conditions, protected from light. Finally, the absorbance was read at […] and 620 nm wavelengths using a Synergy H1 microplate reader (BioTek, Santa Clara, CA, USA). The results are presented as %, while untreated control cells were considered 100%.

[2] = system: human breast carcinoma (MDA-MB-231); assay: MTS metabolic activity assay, MDA-MB-231 cells; type: cell-based; settings: 72 h
Procedure: as §1, §2

BJ cells = assay: MTS metabolic activity assay, BJ cells; type: cell-based; settings: Homo sapiens, 72 h, read-out: Cell metabolic activity (MTS), % of untreated control
Procedure: as §1, §2

glioma (U-118 MG) = assay: MTS metabolic activity assay, U-118 MG cells; type: cell-based; settings: Homo sapiens, U-118-MG, U118-MG, 72 h, read-out: Cell metabolic activity (MTS), % of untreated control
Procedure: as §1, §2

11β-HSD2 = target: T1, 11β-HSD2 (Homo sapiens, UniProt P80365); assay: Inhibition of 11β-HSD2 (cortisol to cortisone, human microsomes, cortisol ELISA); type: biochemical; settings: 2.5 h, 37 °C
T1 construct: Human liver microsomes were used as a source of 11β-HSD2 enzyme; tissue XenoTech Lot No. 1710160; host or cells: human kidney microsomes, mixed gender (method text says human liver microsomes)
T1 sequence (P80365 1-405): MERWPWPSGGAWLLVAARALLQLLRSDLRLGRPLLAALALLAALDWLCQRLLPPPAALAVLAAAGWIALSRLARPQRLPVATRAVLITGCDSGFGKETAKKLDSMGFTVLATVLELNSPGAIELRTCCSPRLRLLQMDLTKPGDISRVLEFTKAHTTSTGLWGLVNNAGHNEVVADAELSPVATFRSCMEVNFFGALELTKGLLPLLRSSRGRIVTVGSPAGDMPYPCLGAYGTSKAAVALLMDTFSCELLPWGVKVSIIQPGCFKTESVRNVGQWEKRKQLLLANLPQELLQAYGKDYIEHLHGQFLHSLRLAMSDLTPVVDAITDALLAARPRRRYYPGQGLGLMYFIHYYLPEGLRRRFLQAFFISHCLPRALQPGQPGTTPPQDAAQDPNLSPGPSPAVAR
Procedure: The resulting solution with a final volume of 100 µL was incubated for 2.5 h at 37 °C. […] The level of unreacted cortisol was measured by a commercially available ELISA kit.

[3] = system: skin melanoma (SK-MEL-30); assay: MTS metabolic activity assay, SK-MEL-30 cells; type: cell-based; settings: 72 h
Procedure: as §1, §2

11β-HSD1 = target: T2, 11β-HSD1 (Homo sapiens, UniProt P28845); assay: Inhibition of 11β-HSD1 (cortisone to cortisol, human liver microsomes, cortisol ELISA); type: biochemical
T2 construct: Human liver microsomes were used as a source of 11β-HSD1 enzyme; tissue XenoTech Lot No. 1410013; host or cells: pooled human liver microsomes, mixed gender
Procedure: The resulting solution with a final volume of 100 µL was incubated for 2.5 h at 37 °C. To stop the reaction, 10 µL of a 100 µM solution of 18β-glycyrrhetinic acid in PBS was added. The level of cortisol obtained in the reaction was measured by commercially available ELISA kit.
As a control, analogous tests without the addition of inhibitors were used. Half the inhibitory concentration (causing 50% reduction of cortisol or cortisone) was read from the chart.

[4] = system: human pancreatic carcinoma (PANC-1); assay: MTS metabolic activity assay, PANC-1 cells; type: cell-based; settings: Homo sapiens, 72 h, read-out: Cell metabolic activity (MTS), % of untreated control
Procedure: as §1, §2

T2 sequence (P28845 whole entry): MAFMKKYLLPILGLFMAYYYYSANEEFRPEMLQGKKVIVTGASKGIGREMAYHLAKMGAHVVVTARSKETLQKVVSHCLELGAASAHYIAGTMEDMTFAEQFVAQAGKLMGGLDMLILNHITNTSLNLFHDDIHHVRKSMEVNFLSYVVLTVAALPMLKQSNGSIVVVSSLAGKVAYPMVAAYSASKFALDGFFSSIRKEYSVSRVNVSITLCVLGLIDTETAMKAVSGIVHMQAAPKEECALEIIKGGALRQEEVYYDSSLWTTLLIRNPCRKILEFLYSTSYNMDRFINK

`CCCC1SC(NC2CCCC2)=NC1=O` (centres unmarked) [Compound 3c, 2-(cyclopentylamino)-5-propylthiazol-4(5H)-one] gave a viability at 10 µM ([1]; Caco-2, 10 µM) of 88.1%, a viability at 20 µM ([1]; Caco-2, 20 µM) of 86.6% and a viability at 50 µM ([1]; Caco-2, 50 µM) of 87.6%. The viability at 100 µM ([1]; Caco-2, 100 µM) was 82%, the viability at 200 µM ([1]; Caco-2, 200 µM) was 86.1% and the viability at 300 µM ([1]; Caco-2, 300 µM) was 83.1%. The viability at 500 µM ([1]; Caco-2, 500 µM) was 68.5%, the viability at 10 µM ([2]; Homo sapiens, MDA-MB-231, 10 µM, read-out: Cell metabolic activity (MTS), % of untreated control) was 101% and the viability at 20 µM ([2]; Homo sapiens, MDA-MB-231, 20 µM, read-out: Cell metabolic activity (MTS), % of untreated control) was 102%. The viability at 50 µM ([2]; Homo sapiens, MDA-MB-231, 50 µM, read-out: Cell metabolic activity (MTS), % of untreated control) was 99.1%, the viability at 100 µM ([2]; Homo sapiens, MDA-MB-231, 100 µM, read-out: Cell metabolic activity (MTS), % of untreated control) was 97.4% and the viability at 200 µM ([2]; Homo sapiens, MDA-MB-231, 200 µM, read-out: Cell metabolic activity (MTS), % of untreated control) was 88.4%. For the same compound, the viability at 300 µM ([2]; Homo sapiens, MDA-MB-231, 300 µM, read-out: Cell metabolic activity (MTS), % of untreated control) was 75.9%, the viability at 500 µM ([2]; Homo sapiens, MDA-MB-231, 500 µM, read-out: Cell metabolic activity (MTS), % of untreated control) was 55% and the “cell viability, decreases to” value ([2]; MDA-MB-231, higher concentrations, range given for the most effective substances together) was 20–65%. The viability at 10 µM (BJ cells; 10 µM) was 98.2%, the viability at 20 µM (BJ cells; 20 µM) was 99.7% and the viability at 50 µM (BJ cells; 50 µM) was 102%. The viability at 100 µM (BJ cells; 100 µM) was 108%, the viability at 200 µM (BJ cells; 200 µM) was 112% and the viability at 300 µM (BJ cells; 300 µM) was 111%. For the same compound, the viability at 500 µM (BJ cells; 500 µM) was 115%, the viability at 10 µM (glioma (U-118 MG); 10 µM) was 111% and the viability at 20 µM (glioma (U-118 MG); 20 µM) was 110%. For the same compound, the viability at 50 µM (glioma (U-118 MG); 50 µM) was 110%, the viability at 100 µM (glioma (U-118 MG); 100 µM) was 114% and the viability at 200 µM (glioma (U-118 MG); 200 µM) was 113%. The viability at 300 µM (glioma (U-118 MG); 300 µM) was 112%, the viability at 500 µM (glioma (U-118 MG); 500 µM) was 112% and the inhibition at 10 µM (11β-HSD2) was 37.7 ± 6.07%. For the same compound, the viability at 10 µM ([3]; Homo sapiens, SK-MEL-30, 10 µM, read-out: Cell metabolic activity (MTS), % of untreated control) was 101%, the viability at 20 µM ([3]; Homo sapiens, SK-MEL-30, 20 µM, read-out: Cell metabolic activity (MTS), % of untreated control) was 102% and the viability at 50 µM ([3]; Homo sapiens, SK-MEL-30, 50 µM, read-out: Cell metabolic activity (MTS), % of untreated control) was 101%. It also gave a viability at 100 µM ([3]; Homo sapiens, SK-MEL-30, 100 µM, read-out: Cell metabolic activity (MTS), % of untreated control) of 101%, a viability at 200 µM ([3]; Homo sapiens, SK-MEL-30, 200 µM, read-out: Cell metabolic activity (MTS), % of untreated control) of 95.9% and a viability at 300 µM ([3]; Homo sapiens, SK-MEL-30, 300 µM, read-out: Cell metabolic activity (MTS), % of untreated control) of 75%. The viability at 500 µM ([3]; Homo sapiens, SK-MEL-30, 500 µM, read-out: Cell metabolic activity (MTS), % of untreated control) was 45.5%, the “cell viability, decreases to” value ([3]; SK-MEL-30, higher concentrations, range given for the most effective substances together) was 20–65% and the IC50 (11β-HSD1) was 2750 ± 120 nM. It also gave an inhibition at 10 µM (11β-HSD1; 10 µM, 2.5 h, 37 °C) of 56.6 ± 6.11%, a viability at 10 µM ([4]; PANC-1, 10 µM) of 108% and a viability at 20 µM ([4]; PANC-1, 20 µM) of 106%. The viability at 50 µM ([4]; PANC-1, 50 µM) was 112%, the viability at 100 µM ([4]; PANC-1, 100 µM) was 114% and the viability at 200 µM ([4]; PANC-1, 200 µM) was 116%. It also gave a viability at 300 µM ([4]; PANC-1, 300 µM) of 115% and a viability at 500 µM ([4]; PANC-1, 500 µM) of 122%.
